From ChEMBL document CHEMBL5131550, “Application of Rapidly Accelerating Fibrosarcoma Protein Degraders in Drug Discovery” (ACS Med Chem Lett, 2022)

Experiments:
Assay type in all cases: cell-based
[1] = system: Protein cereblon/Serine/threonine-protein kinase B-raf (Homo sapiens), P15056+Q96SW2 [V600E]; assay: Protac activity at E3 ubiquitin-protein ligase/BRAF V600E mutant in human T-REx-293 cells assessed as maximal BRAF degradation incubated for 24 hrs by plate reader assay
[2] = system: Protein cereblon/Serine/threonine-protein kinase B-raf (Homo sapiens), P15056+Q96SW2 [G466V]; assay: Protac activity at E3 ubiquitin-protein ligase/BRAF G466V mutant in human T-REx-293 cells assessed as maximal BRAF degradation incubated for 24 hrs by plate reader assay
[3] = target: Protein cereblon/Serine/threonine-protein kinase B-raf (Homo sapiens, UniProt P15056+Q96SW2, V600E); assay: Protac activity at E3 ubiquitin-protein ligase/BRAF V600E mutant in human T-REx-293 cells assessed as BRAF degradation incubated for 24 hrs by plate reader assay
[4] = target: Protein cereblon/Serine/threonine-protein kinase B-raf (Homo sapiens, UniProt P15056+Q96SW2, G466V); assay: Protac activity at E3 ubiquitin-protein ligase/BRAF G466V mutant in human T-REx-293 cells assessed as BRAF degradation incubated for 24 hrs by plate reader assay
[5] = target: T1, RAF proto-oncogene serine/threonine-protein kinase (Homo sapiens, UniProt P04049); assay: Inhibition of RAF in human A-375 cells assessed as ERK phosphorylation at Thr202/Tyr204 residue incubated for 6 hrs by HTRF assay
[6] = target: T1, RAF proto-oncogene serine/threonine-protein kinase; assay: Inhibition of RAF in human WM3629 cells assessed as ERK phosphorylation at Thr202/Tyr204 residue incubated for 6 hrs by HTRF assay

T1 sequence (P04049 whole entry): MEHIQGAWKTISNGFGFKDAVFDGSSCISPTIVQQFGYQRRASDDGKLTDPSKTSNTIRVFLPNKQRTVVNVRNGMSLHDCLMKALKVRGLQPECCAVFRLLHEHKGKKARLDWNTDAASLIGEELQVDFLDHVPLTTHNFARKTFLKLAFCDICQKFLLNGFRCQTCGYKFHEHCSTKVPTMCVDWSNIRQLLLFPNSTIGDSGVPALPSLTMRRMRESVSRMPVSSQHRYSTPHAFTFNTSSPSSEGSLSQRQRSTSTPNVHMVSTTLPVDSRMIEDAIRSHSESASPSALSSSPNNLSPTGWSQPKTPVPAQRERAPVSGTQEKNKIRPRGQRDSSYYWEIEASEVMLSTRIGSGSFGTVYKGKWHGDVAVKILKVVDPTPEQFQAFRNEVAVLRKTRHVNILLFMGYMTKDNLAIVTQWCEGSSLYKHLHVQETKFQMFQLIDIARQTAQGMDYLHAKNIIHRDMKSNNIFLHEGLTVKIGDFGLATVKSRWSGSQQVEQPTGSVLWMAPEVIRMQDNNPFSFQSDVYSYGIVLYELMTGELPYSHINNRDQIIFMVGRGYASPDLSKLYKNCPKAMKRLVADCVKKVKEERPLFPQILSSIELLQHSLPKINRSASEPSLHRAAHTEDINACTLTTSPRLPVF
Sequence of Protein cereblon/Serine/threonine-protein kinase B-raf (Homo sapiens, UniProt P15056+Q96SW2, V600E) (P15056 2-766 V600E limits assumed, stated change not applied): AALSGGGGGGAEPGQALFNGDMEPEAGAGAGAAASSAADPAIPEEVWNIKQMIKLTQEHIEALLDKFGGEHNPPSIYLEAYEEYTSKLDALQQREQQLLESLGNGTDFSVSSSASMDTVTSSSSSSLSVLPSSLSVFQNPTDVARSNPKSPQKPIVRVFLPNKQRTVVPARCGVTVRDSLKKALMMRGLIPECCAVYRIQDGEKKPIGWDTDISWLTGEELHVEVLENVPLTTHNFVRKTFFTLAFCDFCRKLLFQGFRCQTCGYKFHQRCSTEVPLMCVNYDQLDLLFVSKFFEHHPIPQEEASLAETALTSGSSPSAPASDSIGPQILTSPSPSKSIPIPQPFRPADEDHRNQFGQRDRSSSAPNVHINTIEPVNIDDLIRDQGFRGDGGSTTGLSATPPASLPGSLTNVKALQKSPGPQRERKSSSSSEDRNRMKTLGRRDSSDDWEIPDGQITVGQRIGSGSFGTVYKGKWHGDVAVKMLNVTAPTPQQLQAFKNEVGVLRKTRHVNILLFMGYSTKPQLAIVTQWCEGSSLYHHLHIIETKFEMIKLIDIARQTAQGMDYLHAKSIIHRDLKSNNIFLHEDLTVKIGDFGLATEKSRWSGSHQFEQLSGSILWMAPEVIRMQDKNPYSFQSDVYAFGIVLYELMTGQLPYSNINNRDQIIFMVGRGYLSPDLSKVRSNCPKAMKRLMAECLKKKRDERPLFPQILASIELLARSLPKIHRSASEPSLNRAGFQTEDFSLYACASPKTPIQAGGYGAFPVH
Sequence of Protein cereblon/Serine/threonine-protein kinase B-raf (Homo sapiens, UniProt P15056+Q96SW2, V600E) (Q96SW2 whole entry, stated change not applied): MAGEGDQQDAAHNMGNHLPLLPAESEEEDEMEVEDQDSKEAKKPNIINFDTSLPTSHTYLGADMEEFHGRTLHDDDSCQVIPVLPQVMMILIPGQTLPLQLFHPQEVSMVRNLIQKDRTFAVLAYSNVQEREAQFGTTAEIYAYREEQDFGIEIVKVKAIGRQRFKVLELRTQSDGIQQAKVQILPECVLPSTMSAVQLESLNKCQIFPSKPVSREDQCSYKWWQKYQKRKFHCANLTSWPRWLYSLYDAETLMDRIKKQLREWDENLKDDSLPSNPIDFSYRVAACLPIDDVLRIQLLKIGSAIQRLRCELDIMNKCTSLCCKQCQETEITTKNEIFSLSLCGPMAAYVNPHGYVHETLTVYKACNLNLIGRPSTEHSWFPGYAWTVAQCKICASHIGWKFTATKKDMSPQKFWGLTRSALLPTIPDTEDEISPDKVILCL

Row | Compound | Emax [1] | Emax [2] | DC50 [3] | DC50 [4] | IC50 [5] | IC50 [6]
1 | COc1cc(N2CCC(CN3CCC4(CC3)CCN(c3ccc(-c5cnc6[nH]cc(C(=O)c7c(F)ccc(NS(=O)(=O)N8CC[C@@H](F)C8)c7F)c6c5)cc3)CC4)CC2)cc2c1C(=O)N(C1CCC(=O)NC1=O)C2 (some centres not stated) | 35% | 35% | ≤ 5 nM | 1 nM | – | –
2 | Cc1ccc(NC(=O)N2CC[C@@H](CC(F)(F)F)C2)cc1-c1cnc(OCCN2CCN(c3ccc4c(c3)C(=O)N(C3CCC(=O)NC3=O)C4=O)CC2)c(N2CCOCC2)c1 (some centres not stated) | – | – | – | – | 100 nM | 10 nM
3 | O=C1CCC(N2Cc3cc(N4CCC(CN5CC6(CCN(c7ncc(-c8cnc9[nH]cc(C(=O)c%10c(F)ccc(NS(=O)(=O)N%11CC[C@@H](F)C%11)c%10F)c9c8)cn7)C6)C5)CC4)ccc3C2=O)C(=O)N1 (some centres not stated) | 35% | > 70% | ≤ 5 nM | 1 nM | – | –
4 | Cc1ncc(NC(=O)N2CC[C@@H](CC(F)(F)F)C2)cc1-c1cnc(OCCN2CCN(c3ccc4c(c3)C(=O)N(C3CCC(=O)NC3=O)C4=O)CC2)c(N2CCOCC2)c1 (some centres not stated) | – | – | – | – | 1000 nM | 10 nM
